This is an account of results in patent US20030166715A1, “Use of vitaletheine modulators in the prophylaxis and treatment of disease” (priority 1990, published 2003).

One assay relates to CFU-E and BFU-E. Briefly: Modulation of erythropoiesis: stimulation of colony formation synergistically with erythropoietin (FIG. 3a/3b). It is filed as cell-based. From the text: (§1) Colony formation from the early murine progenitors not exposed to vitalethine, and either initially exposed to or initially deprived of erythropoietin are represented by upper and lower triangles, respectively. […] Bars are standard error of the mean.
(§2) Human bone marrow cells were obtained as surplus from experiments performed on material aspirated from normal volunteers with IRB approval and informed written consent. Peripheral blood cells were obtained from commercially purchased buffy coats or surgical waste (umbilical cord blood). Mouse bone marrow was flushed from femurs and obtained as surplus from experiments performed on C57B1/6 mice with animal committee approval. Human light density cells were separated by centrifugation over Ficoll-daitrizoate (SG 1.075) and depleted of adherent cells by incubation on serum coated plastic. Mouse cells were used without further fractionation. […] One unit per ml of erythropoietin and medium without added factors served as positive and negative controls. Initial incubations were carried out for 18 hours at 37° . […]

The test system of a further assay is CFU-E progenitors. As to the kind of experiment: Modulation of erythropoiesis: colony formation from CFU-E progenitors in plasma clot culture. In kind it is cell-based, murine. Particulars: depending upon concentration (FIG. 3a).
From the text: as §1, §2

Assay [1] deals with Cloudman S-91 murine melanoma cells. Briefly: Treatment of murine Cloudman S-91 melanoma in mice, tumor volume. In kind it is in vivo, mouse. How it is done:
This regimen is predicated on the observation that certain enzymes thought to be responsive to these compounds, and which may pay a role in the reported results, are induced 48 hours after chemical stimulation. […] Data presented is calculated from measured tumor diameters, including mice with no tumor. Error bars indicate standard error of the mean.
Cloudman S-91 murine melanoma cells (American Type Culture Collection #53.1, Clone M-3) from a (C X DBA)F1 male mouse were grown in 75 ml flasks (Corning Glass Works, Corning, N.Y., USA) containing Ham's F12 medium supplemented with 15% fetal bovine serum, penicillin (100 U/ml), and streptomycin (100 μg/ml), all commercially available from Sigma Chemical Company, St. Louis, Mo., USA. Cultures were incubated at 37° C. under 5.5% carbon dioxide initially at 6×10^6 cells per ml for two days, with a medium change after one day. Cultures were then trypsinized, split into two fresh flasks at one half the cell density, above, and maintained for one week prior to injection in female (DBA X BALB c) mice (CD2F1/Hsd from Harlan Sprague Dawley, Inc., Indianapolis, Ind., USA). For inoculation, cells were first trypsinized, washed 3 times in phosphate buffered saline, and diluted to 1×10^5 cells/100 μl phosphate buffered saline prior to subcutaneous injection in the flank.
The compounds were dissolved in water, filtered through an appropriate sterilizing filter (0.22 μm non-pyrogenic, μ Star LB™ from Costar®, Cambridge, Mass., USA), diluted to the desired concentration in sterile, physiological saline (0.1 ml), and injected intraperitoneally with a 27 gauge, ⅜ inch allergy syringe (Becton Dickinson, Rutherford, N.J., USA); by gently lifting the skin on the abdomen of supine mice and injecting horizontally, puncture of peritoneal organs is avoided, thereby minimizing trauma to the mice.

The next assay relates to human BFU-E. Briefly: Modulation of erythropoiesis: colony formation from human BFU-E in plasma clot culture. The settings on record: 18 h initial incubation with vitalethine; compared with levels initially containing erythropoietin (FIG. 3a). It is filed as cell-based.
From the text: as §1, §2

Molecules are shown by their SMILES.

In the case of `O=C(O)NCCC(=O)NCCSSCCNC(=O)CCNC(=O)O` [vitalethine, N,N′-(dithiodi-2,1-ethanediyl)-bis-(3-carboxyamino-propan-amide)], in the assay with CFU-E and BFU-E, the “concentration necessary for a similar response (stimulation of colony formation)” value is “about 10 pg/ml”. Also, in the assay with CFU-E progenitors, the “erythropoiesis from the CFU-E progenitors” value is reported as “either enhances or minimizes erythropoiesis”. The average tumor volume entry in assay [1] (100 pg/kg mouse (FIG. 1b)) and in assay [1] (10 fg/kg mouse (FIG. 1a)) was “diminishes average tumor volume substantially” throughout. In addition, the “diminution of tumor volume compared to saline controls” value in assay [1] (10 femtogram/kg mouse intraperitoneally three times per week, beginning second day after tumor inoculation) is given as approximately 70%. Moreover, the “colony formation from human BFU-E initially deprived of erythropoietin” value with human BFU-E is recorded as “increased”.
